The values that follow come from patent publication US20160317560A1, “PARTICLES CONTAINING PHOSPHOLIPIDS OR BIOACTIVE FATTY ACIDS AND USES THEREOF” (THE UNIVERSITY OF NORTH CAROLINA AT CHAPEL HILL, priority 2013, published 2016).

“Also recorded” adds a separate entry of the source.

For one assay, the system named is 2D2 T cells. In words: Murine DC/T-cell co-culture (mouse dendritic cells and MOG-specific 2D2 T cells), T-cell activation and Treg induction. In kind it is cell-based. As to conditions: for IFN-γ production by T cells: in the presence of MOG antigen, 50 μM PS (FIG. 11A). The source says: FIG. 5 depicts a murine model of multiple sclerosis (2D2) for evaluating T-cell activation in murine DC/T-cell co-culture.
FIG. 11A-B depicts programming regulatory T cells with phosphatidylserine Nanoparticles. A) Flow plots of 2D2 T cells after co-stimulation with bone-marrow derived dendritic cells+/−the MOG peptide. […] (*=p<0.05).
Using a co-culture model with mouse dendritic cells and 2D2 T cells specific for the MOG-peptide, Th1-skewed IFN-γ producing T cells were turned into FOXP3+, IL-10 producing T regulatory cells (FIGS. 10 and 11). In the absence of antigen, roughly 20% of all T cells were programmed into anti-inflammatory IL-10 producing FOXP3+ regulatory T cells. This was about a 10-15 fold increase as compared to blank PLGA particles controls. This was about 4-5 fold increase over the soluble PS control at the same dose. This is an exceptionally high % of T regulatory cells in any in vitro or in vivo system.
In the presence of soluble MOG antigen, about 10% of T cells produced IFN-γ in the blank 80×320 nm PLGA control group. […] The presence of antigen led to a 10% IL-10+, FOXP3+ T regulatory population in the presence of blank PLGA particles or soluble PS. PS-PLGA particles induced 2 fold higher levels of this regulatory T cell population, about 20% of all T cells.

For assay [1], the system named is primary progressive multiple sclerosis. Briefly: Murine model of primary progressive multiple sclerosis. The class given is in vivo. As to conditions: 14 day study. The source says: FIG. 15 depicts a murine model of primary progressive multiple sclerosis. Reproduced from the Reeves Foundation. FIG. 16 provides data showing PS-loaded particles reduce MS symptoms. The study was 14 days to emphasize the suppression of the neuroinflammation ramp-up during the model.

For assay [2], the system named is bone marrow derived mouse macrophages. In words: Inflammasome activation in bone marrow derived mouse macrophages. In kind it is cell-based. To be noted: 1 μm and 80×320 nm particles; soluble form at the same dose; FIG. 19. The source says: FIG. 19. Anti-inflammatory Programming Particles.
Disclosed herein are data showing emergent properties when bioactive fatty acids and phospholipids are delivered via the particles described herein. […] Other phospholipids and bioactive fatty acids could have similar properties when particulated as described herein.

Regarding `CCCCCCCC/C=C\CCCCCCCC(=O)O[C@H](COC(=O)CCCCCCCCCCCCCCCCC)COP(=O)(O)OC[C@H](N)C(=O)[O-].[Na+]` [PS SOL, Phosphatidylserine], the “FOXP3+ T cells” value in the assay on 2D2 T cells (FIG. 11A, 50 μM PS) is recorded as “not seen”. The entries for the “IFN-γ production by T cells” value in the assay on 2D2 T cells, in the assay on 2D2 T cells (listed as soluble PS) and with 2D2 T cells (listed as soluble phosphatidylserine (PS)) were “inhibit IFN-γ production”, “inhibited to baseline levels; also recorded: can inhibit IFN-γ as well as particulate PS” and “dampen IFN-γ production”, respectively. Also, the “IL-10+, FOXP3+ T regulatory population, % of all T cells” value in the assay with 2D2 T cells (presence of soluble MOG antigen) came out at 10%. Further, the “Maximum Score” value in assay [1] ((+/−)) is reported as 0.8 (+/−0.2). Besides, the “Disease Incidence” value in assay [1] ((affected/total animals)) is listed as 83% (10/12). In addition, the “inflammasome activation / signaling” value in assay [2] is on record as “exacerbated inflammation”.
